Laboratory results published in patent US8354424B2, “Method of treating actinic keratosis” (Medicis Pharmaceutical Corporation, priority 2005, dated 2013).

Test system: actinic keratosis lesions
Test: Randomized, double-blind study, eight-week treatment period, topical cream on actinic keratosis lesions on the head
Format: in vivo, human
Conditions: formulation with about 0.3 wt-% compound, twice per week, about 8 weeks, compared to other formulations or regimens
Method: A randomized, double-blind study was performed to evaluate single and multi-weekly doses of the formulations prepared above topically applied to actinic keratosis lesions on the head.
Otherwise healthy white (n=280) subjects (15% female, 85% male) ranging in ages 38 to 89 years of age (median age of 66.5), inclusive, with actinic keratosis lesions on the head were enrolled in the study. […] The actinic keratosis lesions areas were on the scalp (36%) and face (64%).
The study included an eight-week treatment period followed by an eight-week post-treatment period. […]
Subjects completed interval visits at treatment initiation, 1, 2, 4, and 8 weeks after treatment was initiated and at four and eight-weeks after the end of treatment. Subjects were monitored for erythema and other treatment site conditions during the entire 16 weeks of the study. Erythema, as assessed by study investigators, was defined as intense, moderate, mild, or no redness of the skin at the treatment site and given an intensity score of severe, moderate, mild, or none, respectively.
At the eight-week post-treatment visit, the treatment area was clinically evaluated for actinic keratosis lesions. Efficacy was measured as complete clearance of actinic keratosis lesions and partial clearance of actinic keratosis lesions at the eight-week post-treatment visit. […]

In the case of `Cc1nc2c(N)nc3cccnc3c2n1CC(C)C` [2-methyl-1-(2-methylpropyl)-1H-imidazo[4,5-c][1,5]naphthyridin-4-amine], the side effects is reported as “a low level of side effects”.
